Results from patent publication US20050101595A1, “N-containing cycloalkyl-substituted amino-thiazole derivatives and pharmaceutical compositions for inhibiting cell proliferation and methods for their use” (PFIZER INC., priority 2003, published 2005).
Counter-ions that a name gives are not always drawn. Like-named read-outs stand apart in the source and are kept apart here. Blank lines part the entries; values can stand above or below the molecule they belong to.

Key:
[1] = target: human CDK4 and genetically truncated (1-264) cyclin D3 (Homo sapiens, UniProt P11802); test: Inhibition of CDK4/Cyclin D Retinoblastoma Kinase Activity; assay type: biochemical; details: for Ki: apparent Ki, CDK4/truncated cyclin D3, Rb fragment substrate, 25 μM ATP
Chain of human CDK4 and genetically truncated (1-264) cyclin D3 (P11802 whole entry, the tested form may be a part): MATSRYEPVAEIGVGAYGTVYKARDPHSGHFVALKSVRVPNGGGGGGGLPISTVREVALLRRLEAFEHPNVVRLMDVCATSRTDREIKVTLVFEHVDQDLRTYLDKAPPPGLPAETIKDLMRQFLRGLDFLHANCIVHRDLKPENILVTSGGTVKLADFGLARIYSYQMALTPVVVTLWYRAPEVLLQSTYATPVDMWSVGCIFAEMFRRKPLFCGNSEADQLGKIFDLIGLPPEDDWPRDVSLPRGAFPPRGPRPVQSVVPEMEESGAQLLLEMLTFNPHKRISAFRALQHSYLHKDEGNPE
Chain of human CDK4 and genetically truncated (1-264) cyclin D3 (P30281 1-264 partner): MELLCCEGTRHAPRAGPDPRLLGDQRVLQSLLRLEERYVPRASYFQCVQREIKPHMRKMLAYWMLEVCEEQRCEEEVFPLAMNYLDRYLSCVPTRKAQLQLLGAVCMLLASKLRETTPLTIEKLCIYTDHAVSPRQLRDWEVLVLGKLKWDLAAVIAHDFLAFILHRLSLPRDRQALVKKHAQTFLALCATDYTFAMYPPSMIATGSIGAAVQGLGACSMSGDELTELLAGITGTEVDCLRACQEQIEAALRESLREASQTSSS
Method in brief: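 Human CDK4/truncated cyclin D3 (1-264) complex from baculovirus-infected insect cells, 5 nM, phosphorylating Rb fragment (residues 386-928, His-tagged) with 25 μM [32/33P]ATP in HEPES pH 7.4, MgCl2, 2% DMSO at 30° C. for 20 min (60 min for tight binders). Filter-captured radioactivity by phosphorimager; apparent Ki from competitive or tight-binding fits.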

CDK2/Cyclin A = CDK2/Cyclin A (Homo sapiens, UniProt P24941); test: Inhibition of CDK2/Cyclin A Retinoblastoma Kinase Activity; assay type: biochemical; details: for Ki: apparent Ki, CDK2/proteolyzed cyclin A, Rb fragment substrate, 25 μM ATP
Method in brief: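 Baculovirus-expressed CDK2 complexed with proteolyzed cyclin A (10 or 19 nM), Rb fragment substrate, 25 μM [32P/33P]ATP, HEPES pH 7.4, 30 °C for 60 or 75 min under initial-rate conditions. Filter capture and phosphorimager readout; apparent Ki fitted to competitive or tight-binding competitive inhibition.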

HCT-116 cell line = test: Inhibition of cell growth, tetrazolium salt (MTT) assay; assay type: cell-based; details: for IC50: Homo sapiens, HCT-116, 120 h, MTT, three to five days, read-out: HCT-116 IC50; for HCT-116 % Inhibition at 0.25 μM: 0.25 μM compound
Method in brief: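 HCT-116 cells in McCoy's 5A medium received compound 4 h after plating (0.5% v/v DMSO) and were incubated three to five days at 37° C, 5% CO2. MTT (0.2 mg/mL final) then added for 4 h; DMSO-solubilized formazan read at 540 nm against 0.5% DMSO-treated controls.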

[2] = 0.1 μM compound, HCT-116, Table 4
[3] = 0.1 μM compound, HCT-116, Table 3

Ki [1]: 14 nM
Ki (CDK2/Cyclin A): 2 nM
IC50 (HCT-116 cell line; first HCT-116 column (c4)): < 5000 nM
IC50 (HCT-116 cell line; second HCT-116 column (c5)): < 5000 nM
SMILES: Nc1nc(NC2CCN(S(=O)(=O)c3ccc(C(=O)O)cc3)CC2)sc1C(=O)c1c(F)cccc1F [Example F14, 4-{4-[4-Amino-5-(2,6-difluoro-benzoyl)-thiazol-2-ylamino]-piperidine-1-sulfonyl}-benzoic Acid]

CDK4 % Inhibition at 0.03 μM ([1]; 0.03 μM compound, Table 4): 53%
CDK2 % Inhibition at 0.03 μM (CDK2/Cyclin A; 0.03 μM compound, Table 4): 29%
SMILES: Nc1nc(NC2CCN(C(=O)CCC3CCCC3)CC2)sc1C(=O)c1c(F)cccc1F [Example Q58]
HCT-116 % Inhibition at 0.1 μM (HCT-116 cell line; [2]): 0%
HCT-116 % Inhibition at 0.25 μM (HCT-116 cell line; HCT-116, Table 4): 25%

CDK4 % Inhibition at 0.03 μM ([1]; at 0.03 μM): 69%
CDK2 % Inhibition at 0.03 μM (CDK2/Cyclin A; at 0.03 μM): 45%
SMILES: Cn1nc(C(C)(C)C)cc1C(=O)N1CCC(Nc2nc(N)c(C(=O)c3c(F)cccc3F)s2)CC1 [Example R60]
HCT-116 % Inhibition at 0.1 μM (HCT-116 cell line; HCT-116 cells, at 0.1 μM): 0%
HCT-116 5 Inhibition at 0.25 μM (HCT-116 cell line; HCT-116 cells): 29

Ki [1]: 19 nM
Ki (CDK2/Cyclin A): 120 nM
IC50 (HCT-116 cell line; first HCT-116 column (c4)): 14 nM
IC50 (HCT-116 cell line; second HCT-116 column (c5)): 41 nM
SMILES: Cc1cc(C)cc(C(=O)N2CCC(Nc3nc(N)c(C(=O)c4c(F)cccc4F)s3)CC2)c1 [Example D14, {4-Amino-2-[1-(3,5-dimethyl-benzoyl)-piperidin-4-ylamino]-thiazol-5-yl}-(2,6-difluoro-phenyl)-methanone]

CDK4 % Inhibition at 0.03 μM ([1]; 0.03 μM compound, Table 3): 22%
CDK2 % Inhibition at 0.03 μM (CDK2/Cyclin A; 0.03 μM compound, Table 3): −8%
SMILES: Nc1nc(NC2CCN(S(=O)(=O)c3c(F)cccc3F)CC2)sc1C(=O)c1c(F)cccc1F [Example P67]
HCT-116 % Inhibition at 0.1 μM (HCT-116 cell line; [3]): 9%
HCT-116 % Inhibition at 0.25 μM (HCT-116 cell line; HCT-116, Table 3): 25%

Ki [1]: 0.21 nM
Ki (CDK2/Cyclin A): 0.8 nM
IC50 (HCT-116 cell line; first HCT-116 column (c4)): 40 nM
IC50 (HCT-116 cell line; second HCT-116 column (c5)): 250 nM
SMILES: CN1CCCC(COc2ccc(S(=O)(=O)N3CCC(Nc4nc(N)c(C(=O)c5c(F)cccc5F)s4)CC3)cn2)C1 (centres unmarked) [Example H7, 1-[4-Amino-2-{1-[6-(1-methyl-piperidin-3RS-ylmethoxy)-pyridine-3-sulfonyl]-piperidin-4-ylamino}-thiazol-5-yl)-1-(2,6-difluoro-phenyl)-methanone Trifluoroacetic Acid Salt]

CDK4 % Inhibition at 0.03 μM ([1]; at 0.03 μM): 22%
CDK2 % Inhibition at 0.03 μM (CDK2/Cyclin A; at 0.03 μM): 27%
SMILES: Nc1nc(NC2CCN(C(=O)c3c(F)ccc(F)c3F)CC2)sc1C(=O)c1c(F)cccc1F [Example R37]
HCT-116 % Inhibition at 0.1 μM (HCT-116 cell line; HCT-116 cells, at 0.1 μM): 0%
HCT-116 5 Inhibition at 0.25 μM (HCT-116 cell line; HCT-116 cells): 48

SMILES: Nc1nc(NC2CCN(C(=S)Oc3ccccc3)CC2)sc1C(=O)c1c(F)cccc1F [Example C6, 4-[4-Amino-5-(2,6-difluoro-benzoyl)-thiazol-2-ylamino]-piperidine-1-carbothioic Acid O-Phenyl Ester]
Ki [1]: 7.9 nM
Ki (CDK2/Cyclin A): 6.1 nM
IC50 (HCT-116 cell line; first HCT-116 column (c4)): 220 nM
IC50 (HCT-116 cell line; second HCT-116 column (c5)): 900 nM

CDK4 % Inhibition at 0.03 μM ([1]; 0.03 μM compound, Table 4): 18%
CDK2 % Inhibition at 0.03 μM (CDK2/Cyclin A; 0.03 μM compound, Table 4): −2%
SMILES: Nc1nc(NC2CCN(C(=O)C3CC3)CC2)sc1C(=O)c1c(F)cccc1F [Example Q54]
HCT-116 % Inhibition at 0.1 μM (HCT-116 cell line; [2]): 0%
HCT-116 % Inhibition at 0.25 μM (HCT-116 cell line; HCT-116, Table 4): 35%

CDK4 % Inhibition at 0.03 μM ([1]; at 0.03 μM): 38%
CDK2 % Inhibition at 0.03 μM (CDK2/Cyclin A; at 0.03 μM): 2%
SMILES: Cc1onc(-c2ccccc2)c1C(=O)N1CCC(Nc2nc(N)c(C(=O)c3c(F)cccc3F)s2)CC1 [Example R21]
HCT-116 % Inhibition at 0.1 μM (HCT-116 cell line; HCT-116 cells, at 0.1 μM): 0%
HCT-116 5 Inhibition at 0.25 μM (HCT-116 cell line; HCT-116 cells): 47

Ki [1]: 2 nM
Ki (CDK2/Cyclin A): 1.7 nM
IC50 (HCT-116 cell line; first HCT-116 column (c4)): 160 nM
IC50 (HCT-116 cell line; second HCT-116 column (c5)): 500 nM
SMILES: Cn1ccnc1-c1ccc(S(=O)(=O)N2CCC(Nc3nc(N)c(C(=O)c4c(F)cccc4F)s3)CC2)cn1 [Example I3, 1-(4-Amino-2-{1-[6-(1-methyl-1H-imidazol-2-yl)-pyridine-3-sulfonyl]-piperidin-4-ylamino}-thiazol-5-yl)-1-(2,6-difluoro-phenyl)-methanone Trifluoroacetic Acid Salt]

CDK4 % Inhibition at 0.03 μM ([1]; 0.03 μM compound, Table 3): 82%
CDK2 % Inhibition at 0.03 μM (CDK2/Cyclin A; 0.03 μM compound, Table 3): 65%
SMILES: Nc1nc(NC2CCN(S(=O)(=O)c3ccc(-c4ccccn4)s3)CC2)sc1C(=O)c1c(F)cccc1F [Example P45]
HCT-116 % Inhibition at 0.1 μM (HCT-116 cell line; [3]): 14%
HCT-116 % Inhibition at 0.25 μM (HCT-116 cell line; HCT-116, Table 3): 27%

CDK4 % Inhibition at 0.03 μM ([1]; 0.03 μM compound, Table 4): 14%
CDK2 % Inhibition at 0.03 μM (CDK2/Cyclin A; 0.03 μM compound, Table 4): 12%
SMILES: Nc1nc(NC2CCN(C(=O)C3CCC3)CC2)sc1C(=O)c1c(F)cccc1F [Example Q56]
HCT-116 % Inhibition at 0.1 μM (HCT-116 cell line; [2]): 0%
HCT-116 % Inhibition at 0.25 μM (HCT-116 cell line; HCT-116, Table 4): 35%

Ki [1]: 4.3 nM
Ki (CDK2/Cyclin A): 5.5 nM
IC50 (HCT-116 cell line; first HCT-116 column (c4)): > 5000 nM
IC50 (HCT-116 cell line; second HCT-116 column (c5)): > 5000 nM
SMILES: Nc1nc(NC2CCN(S(=O)(=O)CCNC3CCS(=O)(=O)C3)CC2)sc1C(=O)c1c(F)cccc1F (centres unmarked) [Example K31, (4-Amino-2-{1-[2-(1,1-dioxo-tetrahydro-1-lamda-6-thiophen-3-ylamino)-ethanesulfonyl]-piperidin-4-ylamino}-thiazol-5-yl)-(2,6-difluoro-phenyl)-methanone Trifluoroacetic Acid Salt.]
